Experimental data taken from paper PMC11859928, “Design, Synthesis, and Antiproliferative Activity of Novel Indole/1,2,4-Triazole Hybrids as Tubulin Polymerization Inhibitors” (Pharmaceuticals, 2025).

Experiments:
Experiment in all cases: NCI one-dose assay
A549/ATCC = format: cell-based; settings: Homo sapiens, Non-small cell lung cancer, read-out: Cell growth inhibition %
DU-145 = format: cell-based; settings: Homo sapiens, DU-145, Prostate cancer, read-out: Cell growth inhibition %
EKVX = format: cell-based; settings: Homo sapiens, Non-small cell lung cancer, read-out: Cell growth inhibition %
HCC-2998 = format: cell-based; settings: Homo sapiens, HCC-2998, Colon cancer, read-out: Cell growth inhibition %
HL-60(TB) = format: cell-based; settings: Homo sapiens, Leukemia, read-out: Cell growth inhibition %
HS 578 T = format: cell-based; settings: Homo sapiens, Breast cancer, read-out: Cell growth inhibition %
HT29 = format: cell-based; settings: Homo sapiens, HT-29, HT29, Colon cancer, read-out: Cell growth inhibition %
IGROV1 = format: cell-based; settings: Homo sapiens, IGROV-1, IGROV1, Ovarian cancer, read-out: Cell growth inhibition %
K-562 = format: cell-based; settings: Homo sapiens, K562, K-562, Leukemia, read-out: Cell growth inhibition %
M14 = format: cell-based; settings: Homo sapiens, M14, Melanoma, read-out: Cell growth inhibition %
MALME-3M = format: cell-based; settings: Homo sapiens, Melanoma, read-out: Cell growth inhibition %
MDA-MB-231/ATCC = format: cell-based; settings: Homo sapiens, Breast cancer, read-out: Cell growth inhibition %
NCI-H23 = format: cell-based; settings: Homo sapiens, NCI-H23, Non-small cell lung cancer, read-out: Cell growth inhibition %
NCI-H460 = format: cell-based; settings: Homo sapiens, NCI-H460, Non-small cell lung cancer, read-out: Cell growth inhibition %
NCI-H522 = format: cell-based; settings: Homo sapiens, NCI-H522, Non-small cell lung cancer, read-out: Cell growth inhibition %
NCI/ADR-RES = format: cell-based; settings: Homo sapiens, Ovarian cancer, read-out: Cell growth inhibition %
OVCAR-3 = format: cell-based; settings: Homo sapiens, OVCAR-3, Ovarian cancer, read-out: Cell growth inhibition %
OVCAR-4 = format: cell-based; settings: Homo sapiens, OVCAR-4, Ovarian cancer, read-out: Cell growth inhibition %
OVCAR-5 = format: cell-based; settings: Homo sapiens, OVCAR-5, Ovarian cancer, read-out: Cell growth inhibition %
OVCAR-8 = format: cell-based; settings: Homo sapiens, OVCAR-8, Ovarian cancer, read-out: Cell growth inhibition %
SF-268 = format: cell-based; settings: Homo sapiens, SF-268, CNS cancer, read-out: Cell growth inhibition %
SF-539 = format: cell-based; settings: Homo sapiens, SF-539, CNS cancer, read-out: Cell growth inhibition %
SK-MEL-28 = format: cell-based; settings: Homo sapiens, SK-MEL-28, Melanoma, read-out: Cell growth inhibition %
SK-MEL-5 = format: cell-based; settings: Homo sapiens, SK-MEL-5, Melanoma, read-out: Cell growth inhibition %
SK-OV-3 = format: cell-based; settings: Homo sapiens, SK-OV-3, Ovarian cancer, read-out: Cell growth inhibition %
SN12C = format: cell-based; settings: Homo sapiens, Renal cancer, read-out: Cell growth inhibition %
SNB-19 = format: cell-based; settings: Homo sapiens, SNB-19, CNS cancer, read-out: Cell growth inhibition %
SR = format: cell-based; settings: Homo sapiens, Leukemia, read-out: Cell growth inhibition %
SW-620 = format: cell-based; settings: Homo sapiens, SW-620, Colon cancer, read-out: Cell growth inhibition %
T-47D = format: cell-based; settings: Homo sapiens, T47D, Breast cancer, read-out: Cell growth inhibition %
TK-10 = format: cell-based; settings: Homo sapiens, TK-10, Renal cancer, read-out: Cell growth inhibition %
U251 = format: cell-based; settings: Homo sapiens, U-251, U251, CNS cancer, read-out: Cell growth inhibition %
UACC-257 = format: cell-based; settings: Homo sapiens, UACC-257, Melanoma, read-out: Cell growth inhibition %
786-0 = format: cell-based, human; settings: for inhibition at 10 µM: Homo sapiens, 786-0, 786-0, Renal cancer, read-out: Cell growth inhibition %
HOP-92 = format: cell-based, human; settings: Homo sapiens, HOP-92, HOP-92, Non-small cell lung cancer, read-out: Cell growth inhibition %
UO-31 = format: cell-based, human; settings: Homo sapiens, UO-31, UO-31, Renal cancer, read-out: Cell growth inhibition %

Compound: O/N=C(\CSc1nnc(-c2c[nH]c3ccccc23)n1-c1ccccc1)c1ccc(Br)cc1 [Compound 7i, (Z)-2-((5-(1H-Indol-3-yl)-4-phenyl-4H-1,2,4-triazol-3-yl)thio)-1-(4-bromophenyl) Ethanone Oxime]
- inhibition at 10 µM (A549/ATCC): 118%
- inhibition at 10 µM (DU-145): 188%
- inhibition at 10 µM (EKVX): 163%
- inhibition at 10 µM (HCC-2998): 166%
- inhibition at 10 µM (HL-60(TB)): 136%
- inhibition at 10 µM (HS 578 T): 139%
- inhibition at 10 µM (HT29): 177%
- inhibition at 10 µM (IGROV1): 165%
- inhibition at 10 µM (K-562): 111%
- inhibition at 10 µM (M14): 168%
- inhibition at 10 µM (MALME-3M): 110%
- inhibition at 10 µM (MDA-MB-231/ATCC): 184%
- inhibition at 10 µM (NCI-H23): 85.9%
- inhibition at 10 µM (NCI-H460): 122%
- inhibition at 10 µM (NCI-H522): 130%
- inhibition at 10 µM (NCI/ADR-RES): 174%
- inhibition at 10 µM (OVCAR-3): 99.3%
- inhibition at 10 µM (OVCAR-4): 183%
- inhibition at 10 µM (OVCAR-5): 183%
- inhibition at 10 µM (OVCAR-8): 142%
- inhibition at 10 µM (SF-268): 156%
- inhibition at 10 µM (SF-539): 165%
- inhibition at 10 µM (SK-MEL-28): 126%
- inhibition at 10 µM (SK-MEL-5): 124%
- inhibition at 10 µM (SK-OV-3): 150%
- inhibition at 10 µM (SN12C): 177%
- inhibition at 10 µM (SNB-19): 109%
- inhibition at 10 µM (SR): 98.7%
- inhibition at 10 µM (SW-620): 186%
- inhibition at 10 µM (T-47D): 94%
- inhibition at 10 µM (TK-10): 183%
- inhibition at 10 µM (U251): 90.3%
- inhibition at 10 µM (UACC-257): 109%
- Cell growth inhibition % (786-0; 786-0, Renal cancer, 10 µM): 65.25%
- inhibition at 10 µM (786-0): 65%
- inhibition at 10 µM (HOP-92): 111%
- inhibition at 10 µM (UO-31): 96.4%

Compound: O=C(CSc1nnc(-c2c[nH]c3ccccc23)n1-c1ccccc1)c1ccccc1 [Compound 6f, 2-((5-(1H-indol-3-yl)-4-phenyl-4H-1,2,4-triazol-3-yl)thio)-1-phenylethanone]
- inhibition at 10 µM (A549/ATCC): 14.5%
- inhibition at 10 µM (DU-145): 14.3%
- inhibition at 10 µM (EKVX): 31.6%
- inhibition at 10 µM (HCC-2998): 16.9%
- inhibition at 10 µM (HL-60(TB)): 12.8%
- inhibition at 10 µM (HS 578 T): 75.9%
- inhibition at 10 µM (HT29): 52.1%
- inhibition at 10 µM (IGROV1): 44.9%
- inhibition at 10 µM (K-562): 47.2%
- inhibition at 10 µM (M14): 26.4%
- inhibition at 10 µM (MALME-3M): 62.6%
- inhibition at 10 µM (MDA-MB-231/ATCC): 73%
- inhibition at 10 µM (NCI-H23): 55.1%
- inhibition at 10 µM (NCI-H460): 38.2%
- inhibition at 10 µM (NCI-H522): 28.4%
- inhibition at 10 µM (NCI/ADR-RES): 85.2%
- inhibition at 10 µM (OVCAR-3): 39.2%
- inhibition at 10 µM (OVCAR-4): 102%
- inhibition at 10 µM (OVCAR-5): 11.4%
- inhibition at 10 µM (OVCAR-8): 85.3%
- inhibition at 10 µM (SF-268): 68.3%
- inhibition at 10 µM (SF-539): 92.4%
- inhibition at 10 µM (SK-MEL-28): 0.04%
- inhibition at 10 µM (SK-MEL-5): 9.3%
- inhibition at 10 µM (SK-OV-3): 14.4%
- inhibition at 10 µM (SN12C): 55.3%
- inhibition at 10 µM (SNB-19): 80.8%
- inhibition at 10 µM (SR): 18.4%
- inhibition at 10 µM (SW-620): 23.9%
- inhibition at 10 µM (T-47D): 16.5%
- inhibition at 10 µM (TK-10): 28%
- inhibition at 10 µM (U251): 89.2%
- inhibition at 10 µM (UACC-257): -3.2%
- inhibition at 10 µM (786-0): 70.4%
- inhibition at 10 µM (HOP-92): 53%
- inhibition at 10 µM (UO-31): 44.5%

Compound: C=CCn1c(SCC(=O)c2ccc(OC)cc2)nnc1-c1c[nH]c2ccccc12 [Compound 6b, 2-((4-Allyl-5-(1H-indol-3-yl)-4H-1,2,4-triazol-3-yl)thio)-1-(4-methoxyphenyl) Ethenone]
- inhibition at 10 µM (A549/ATCC): -8.47%
- inhibition at 10 µM (DU-145): -11.8%
- inhibition at 10 µM (EKVX): 3.03%
- inhibition at 10 µM (HCC-2998): -3.48%
- inhibition at 10 µM (HL-60(TB)): 8.98%
- inhibition at 10 µM (HS 578 T): 0.85%
- inhibition at 10 µM (HT29): -12.7%
- inhibition at 10 µM (IGROV1): 11.1%
- inhibition at 10 µM (K-562): 8.14%
- inhibition at 10 µM (M14): -1.55%
- inhibition at 10 µM (MALME-3M): 5.32%
- inhibition at 10 µM (MDA-MB-231/ATCC): 11.1%
- inhibition at 10 µM (NCI-H23): 5.52%
- inhibition at 10 µM (NCI-H460): -1.3%
- inhibition at 10 µM (NCI-H522): 0.49%
- inhibition at 10 µM (NCI/ADR-RES): -3.74%
- inhibition at 10 µM (OVCAR-3): -16.9%
- inhibition at 10 µM (OVCAR-4): -4.81%
- inhibition at 10 µM (OVCAR-5): -2.88%
- inhibition at 10 µM (OVCAR-8): 4.99%
- inhibition at 10 µM (SF-268): -8.99%
- inhibition at 10 µM (SF-539): 1.18%
- inhibition at 10 µM (SK-MEL-28): 1.56%
- inhibition at 10 µM (SK-MEL-5): 3.34%
- inhibition at 10 µM (SK-OV-3): -30.5%
- inhibition at 10 µM (SN12C): 3.73%
- inhibition at 10 µM (SNB-19): -1.42%
- inhibition at 10 µM (SR): 18.5%
- inhibition at 10 µM (SW-620): 0.51%
- inhibition at 10 µM (T-47D): 11.1%
- inhibition at 10 µM (TK-10): -40.5%
- inhibition at 10 µM (U251): 2.31%
- inhibition at 10 µM (UACC-257): -2.78%
- inhibition at 10 µM (786-0): -1.31%
- inhibition at 10 µM (HOP-92): 17.3%
- inhibition at 10 µM (UO-31): 26.9%

Compound: C=CCn1c(SCC(=O)c2ccc(Br)cc2)nnc1-c1c[nH]c2ccccc12 [Compound 6d, 2-((4-Allyl-5-(1H-indol-3-yl)-4H-1,2,4-triazol-3-yl)thio)-1-(4-bromophenyl)ethenone]
- inhibition at 10 µM (A549/ATCC): -3.29%
- inhibition at 10 µM (DU-145): -6.19%
- inhibition at 10 µM (EKVX): 7.22%
- inhibition at 10 µM (HCC-2998): -4.47%
- inhibition at 10 µM (HL-60(TB)): 7.71%
- inhibition at 10 µM (HS 578 T): -5.71%
- inhibition at 10 µM (HT29): -4.18%
- inhibition at 10 µM (IGROV1): 13.3%
- inhibition at 10 µM (K-562): 14.5%
- inhibition at 10 µM (M14): 2.64%
- inhibition at 10 µM (MALME-3M): 9.34%
- inhibition at 10 µM (MDA-MB-231/ATCC): 3.15%
- inhibition at 10 µM (NCI-H23): 4.98%
- inhibition at 10 µM (NCI-H460): -6.13%
- inhibition at 10 µM (NCI-H522): 3.7%
- inhibition at 10 µM (NCI/ADR-RES): 1.17%
- inhibition at 10 µM (OVCAR-3): -10.4%
- inhibition at 10 µM (OVCAR-4): -8.69%
- inhibition at 10 µM (OVCAR-5): 3.19%
- inhibition at 10 µM (OVCAR-8): 5.3%
- inhibition at 10 µM (SF-268): -1.95%
- inhibition at 10 µM (SF-539): 8.23%
- inhibition at 10 µM (SK-MEL-28): 3.9%
- inhibition at 10 µM (SK-MEL-5): 4.07%
- inhibition at 10 µM (SK-OV-3): -13.1%
- inhibition at 10 µM (SN12C): 4.39%
- inhibition at 10 µM (SNB-19): -0.26%
- inhibition at 10 µM (SR): 11.3%
- inhibition at 10 µM (SW-620): -10.2%
- inhibition at 10 µM (T-47D): 2.98%
- inhibition at 10 µM (TK-10): -34.3%
- inhibition at 10 µM (U251): 0.12%
- inhibition at 10 µM (UACC-257): -7.6%
- inhibition at 10 µM (786-0): 1.44%
- inhibition at 10 µM (HOP-92): 8.6%
- inhibition at 10 µM (UO-31): 31.6%
